Data published in patent US20030134865A1, “Modulation of histone deacetylase” (priority 2003, published 2003).
In brackets after ≈: the same amount, converted by molar mass. Several values for one entry are separate records, joined by “and”; a condition that tells them apart may be missing. Identical values can stand only once.

Tests used:
[1] = test system: GM-CSF release, A549 cells; test: GM-CSF release from A549 cells (ELISA)
Protocol: GM-CSF ELISA: Determination of GM-CSF expression was measured by sandwich ELISA (Pharmingen, Lugano, Switzerland) according to the manufacturer's instructions.

HDAC activity = test: Direct effect on HDAC activity of nuclear proteins from untreated A549 cells; type: biochemical; conditions: for direct effect on HDAC activity: nuclear extracts, IBMX 500 μM, rolipram 10 μM, CGS-15943 10 μM; for effect on theophylline-induced increased HDAC activity: inhibitor 1 μM
Protocol: FIG. 13. […] (a) Direct effect of the PDE4 inhibitor rolipram (10 μM) and the adenosine receptor antagonist CGS-15943 (10 μM) on HDAC activity. […] (b) Direct effect of the MEK inhibitor PD089159 (1 μM) and the p38 MAPK inhibitor SB203580 on theophylline induced HDAC activity.

HAT activity = test: Direct effect on HAT activity; type: biochemical; conditions: IBMX 500 μM, rolipram 10 μM, CGS-15943 10 μM
[2] = test system: SLPI production, A549 cells; test: SLPI production by A549 cells (ELISA); type: cell-based
Protocol: A549 cells were grown to 50% confluence in Dulbecco's modified medium (DMEM) containing 10% fetal calf serum (FCS) before incubation for 48-72 hr in serura-free media.
Determination of GM-CSF expression was measured by sandwich ELISA (Pharmingen, Lugano, Switzerland) according to the manufacturer's instructions. For immunoassay of SLPI and acetylated histone, polystyrene microtitre plates were coated overnight at 4° C. with sample diluted with hydroxy carbonate (pH 9.6). Plates were blocked for 2 hr with 5 % ovalbumin in PBS. Antibodies against SLPI (R&D Systems Europe, Abingdon, UK), K5, K8, K12 and K16 acetylated histone 4 (Serotec, Oxford, UK) were diluted 1:300-1:1000 and added to each plate. After 1 hr at room temperature plates were washed sequentially with 0.1% Tween20-PBS and incubated with HRP conjugated goat anti-rabbit antibody (DAKO, Cambridge, UK) for 1 hr. Detection was performed with ABTS following Pharmingen instructions. Recombinant human SLPI (R&D Systems Europe) was used as a standard. As a standard for acetylated histone, crude extracted histone from A549 cells incubated with TSA (100 ng/ml) for 6 hr was used, and the value was calculated in units, where 1 unit is equivalent to the absorbance of 50 ng of TSA-treated hyperacetylated histone after subtraction of BSA-induced histone acetylation.

[3] = test system: histone acetylation, A549 cells; test: Histone acetylation, [3H]-acetate incorporation in whole A549 cells; type: cell-based
Text: Histones were isolated and separated by SDS-PAGE and [^3H]-acetate incorporated histones were counted and normalised to protein level. […] Data represents mean±SEM of 3 independent experiments. **p<0.01.

[4] = test system: histone deacetylase (HDAC) activity, A549 cells; test: Histone deacetylation activity in total cellular extracts of treated A549 cells
Protocol: (B) Effect of Trichostatin A (TSA) on histone deacetylase activity and histone H4 acetylation. Cells were treated with increasing concentrations of TSA for 6 hrs before total cellular proteins were isolated and analysed for deacetylase activity and also histone acetylation by Western blotting using an anti-pan acetylated histone H4 antibody.
Effect of theophylline on histone deacetylase (HDAC) activity in A549 cells. (a) Cells were stimulated with LPS (3 ng/ml) for 24 hours in the presence or absence of theophylline (10^−5 M) or Dex (10^−6 M). Total cellular proteins were extracted and histone deacetylase activity measured. (b) Direct effect of theophylline on HDAC activity. […] Results are expressed as mean±SEM (n=3-5, *p<0.05, **p<0.01).

[5] = test system: CBP-associated HAT activity; test: CBP-immunoprecipitated histone acetylation (IP-HAT assay); type: cell-based
Protocol: […]. Cells were treated as in (A) and CBP immunoprecipitated under stringent conditions (see methods). Histone acetylation was measured as in (A) and results presented as mean±sem of at least 3 independent experiments, *p<0.05.
[…]. Cells were treated as in (A) and CBP immunoprecipitated under mild conditions (see methods). Histone acetylation was measured as in (A). […] Results presented as mean±sem of at least 3 independent experiments, *p<0.05.
Extracts were prepared using 100 μl of stringent immunoprecipitation (IP) buffer (50 mM Tris-HCl, pH 8.0, 150 mM NaCl, 1.0% triton X-100, 0.5% NP-40, 0.1% SDS, 0.5% deoxycholate, complete protease inhibitor cocktail (Boehringer-Mannheim)) or mild IP buffer (10 mM Tris-HCl, pH 8.0, 150 mM NaCl, 0.5% NP-40, complete protease inhibitor cocktail (Boehringer-Mannheim)). The lysis mixture was incubated on ice for 15 min and microfuged for 10 min at 4° C. Extracts were precleared with 20 μl of A/G agarose (a 50:50 mix; Santa Cruz, Santa Cruz, Calif.) and 2 μg of normal IgG. After microcentrifugation, 20 μl of A/G agarose conjugated with 5 μg of antibody were used to precipitate CBP, PCAF, GR or p65 overnight at 4° C. with rotation. […]
IP-HAT assays were performed using a modified method of Ogryzko (Ogryzko, V. V et al (1996) Cell 87:953-959). […] The dried filters were counted in a liquid scintillation counter.

CBP, PCAF = test: CBP and PCAF expression in A549 cells (Western blot); type: cell-based; conditions: 10^−8 and 10^−6M, 6 hrs
Text: Proteins were extracted and size fractionated by SDS-PAGE and CBP and PCAF detected by Western blotting. Results are representative of 3 independent experiments. […] Immunoreactive bands were detected by ECL.

[6] = test system: p65-associated histone acetylation; test: p65-immunoprecipitated histone acetylation (IP-HAT assay); type: cell-based
Protocol: Total cellular proteins were isolated and p65 associated proteins immunoprecipitated under stringent conditions (see methods). The associated histone acetylation activity was measured following incubation of the p65-IP extract with 10 μg free core histones and 0.25 mCi of ^3H-acetyl CoA for 45 minutes.
Histone acetylation experiments were performed as in (A) in the presence of TSA (100 ng/ml).
Extracts were prepared using 100 μl of stringent immunoprecipitation (IP) buffer (50 mM Tris-HCl, pH 8.0, 150 mM NaCl, 1.0% triton X-100, 0.5% NP-40, 0.1% SDS, 0.5% deoxycholate, complete protease inhibitor cocktail (Boehringer-Mannheim)) or mild IP buffer (10 mM Tris-HCl, pH 8.0, 150 mM NaCl, 0.5% NP-40, complete protease inhibitor cocktail (Boehringer-Mannheim)). […] After microcentrifugation, 20 μl of A/G agarose conjugated with 5 μg of antibody were used to precipitate CBP, PCAF, GR or p65 overnight at 4° C. with rotation.
Immune complexes with resin were resuspended in 150 μl of HAT buffer (50 mM Tris-HCl, pH 8.0, 10% glycerol, 1 mM dithiothreitol, 0.1 mM EDTA, complete protease inhibitor cocktail). Typically, 20 μl of free core histone solution extracted from A549 cells (final amount 10 μg) and 30 μl of immunoprecipitate were incubated. Reactions were initiated by the addition of 0.25 mCi of [^3H] acetyl-CoA (5 Ci/mmol)(Amersham) and performed for 45 min at 30° C.

[7] = test system: histone H4 lysines K5, K8, K12, K16; test: Immunocytochemical staining for acetylated histone H4 lysine residues; type: cell-based; conditions: 6 hr
Protocol: Immunocytochemical staining for specific histone H4 acetylated lysine residues. […] Results are representative of 4 independent experiments.
Cells were washed with Hanks solution, and air-dried for 30 min at RT. Cells were then fixed in ice-cold acetone-methanol (50/50, w/w) (−20° C.) for 10 min. Slides were air dried and incubated with blocking buffer (20% normal swine serum in PBS, 0.1% saponin)(Dako) for 20 mmn followed by 1 hr incubation with primary antibody solution (PBS, 0.1% saponin, 1% BSA). Antibodies against pan-acetylated H4, H4-K5, H4-K8, H4-K12 and H4-K16 (Serotec) were used at 1:100 to 1:300 dilution. Slides were washed twice and incubated with biotinylated swine anti-rabbit IgG (Dako)(1:200) for 45 min. Slides were washed again before incubation with fluorescein isothiocyante-conjugated streptavidine (1:100) for 45 min. The slides were washed twice more before counterstaining with 20% haematoxyline, and mounting. Stained cells were observed by confocal microscopy. Confocal scanning laser microscopy images were collected with a Leica confocal microscope, equipped with a 488/514 nm dual band argon ion laser. An oil-immersion objective was used and images were collected using TCSNT software.

[8] = test system: HAT activity, BAL macrophages; test: HAT activity in BAL macrophages; conditions: rolipram 10 μM
Protocol: HAT activity (a) and HDAC activity (b) were measured as described in the methods. Results are expressed as mean±SEM (n=5).
Fibreoptic bronchoscopy and isolation of BAL macrophages: Subjects attended our bronchoscopy suite at 8.30 am after having fasted from midnight and were pretreated with atropine (0.6 mg iv) and midazolam (5-10 mg iv). Oxygen (31/min) was administered via nasal prongs throughout the procedure and oxygen saturation was monitored with a digital oximeter. Using local anaesthesia with lidocaine (4%) to the upper airways and larynx, a fibreoptic bronchoscope (Olympus BF10) was passed through the nasal passages into the trachea. Bronchoalveolar lavage (BAL) was performed from the right middle lobe using warmed 0.9% NaCl with 4 successive aliquots of 60 mls of 0.9% NaCl. […] Cytospins were prepared and stained with May-Grunwald stain for differential cell counts. Cell viability was assessed using trypan blue exclusion.
After incubation for 10 min at 37° C. cells were stimulated for 6 hr. […] Gels were stained with Coommasie brilliant blue and the core histones (H2A, H2B, H3 and H4) excised. The radioactivity in extracted core histones was determined by liquid scintillation counting and normalised to protein level.

[9] = test system: HDAC activity, BAL macrophages; test: HDAC activity in BAL macrophages; type: cell-based, human; conditions: 24 hours, rolipram 10 μM

Compound: OO [H2O2]
- GM-CSF release, IL-1β plus H2O2 ([1]; A549 cells): 2054 ± 342 pg/mL

Compound: CC(C)Cn1c(=O)n(C)c(=O)c2[nH]cnc21 [IBMX]
- direct effect on HDAC activity (HDAC activity): no direct effect
- direct effect on HAT activity (HAT activity): no direct effect

Compound: COc1cccc(-c2cc(=O)c3ccccc3o2)c1N [PD089059]
- effect on theophylline-induced increased HDAC activity (HDAC activity): failed to have any effect

Compound: C[S+]([O-])c1ccc(-c2nc(-c3ccncc3)c(-c3ccc(F)cc3)[nH]2)cc1 (centres unmarked) [SB203580]
- effect on theophylline-induced increased HDAC activity (HDAC activity): significantly inhibited

Compound: CC(/C=C/C(=O)NO)=C\[C@@H](C)C(=O)c1ccc(N(C)C)cc1 [TSA, trichostatin A]
- SLPI production ([2]; IL-1β 1 ng/ml after pretreatment with TSA 1 ng/ml, versus 6.0±0.5): 8.2 ± 0.3 ng/mL
- IL-1β-induced GM-CSF release ([1]; IL-1β 1 ng/ml plus TSA 1 ng/ml, versus 157±6 without TSA): 233 ± 12 ng/mL
- effect of TSA on dexamethasone (10^−6 M) suppression of GM-CSF release ([1]; IL-1β plus H2O2): unable to block
- effect of TSA on suppression of GM-CSF release by combined treatment ([1]; IL-1β plus H2O2): blocked
- effect of TSA pre-treatment on repression of GM-CSF release by combined treatment ([1]; IL-1β-stimulated): blocked
- GM-CSF release in the presence of TSA ([1]; IL-1β-stimulated, with or without dexamethasone 10^−6 M): 969 ± 84 pg/mL
- basal histone acetylation with TSA ([3]; TSA 1 ng/ml): 162±21 dpm/μg protein
- dexamethasone-induced histone acetylation with TSA ([3]; TSA 1 ng/ml, versus 71±9): 984±50 dpm/μg protein
- IL-1β-stimulated histone acetylation with TSA ([3]; TSA 1 ng/ml, versus 137±15): 1543±143 dpm/μg protein
- IL-1β plus dexamethasone (10^−10 M)-stimulated histone acetylation with TSA ([3]; TSA 100 ng/ml, versus 37±5): 435±28 dpm/μg protein
- IL-1β-stimulated histone acetylation with TSA ([3]; TSA 100 ng/ml, versus 71±9): 1543±143 dpm/μg protein
- IC50, decrease in HDAC activity ([4]; A549 cells, 6 hrs): 1.1 ng/mL (≈ 3.64 nM)
- HDAC activity in A549 cells ([4]; TSA, increasing concentrations, 6 hrs, decrease from 112±21): 11±3 dpm/ng protein

Compound: C[C@@H]1C[C@H]2[C@@H]3CCC4=CC(=O)C=C[C@]4(C)[C@@]3(F)[C@@H](O)C[C@]2(C)[C@@]1(O)C(=O)CO [dexamethasone]
- IC50 ([5]; CBP immunoprecipitated under stringent IP conditions, read-out: IC50, IL-1β-stimulated CBP-dependent histone acetylation): 8 nM
- IC50, IL-1β-induced CBP-associated histone acetylation ([5]; CBP isolated under mild IP conditions): 0.04 nM
- CBP or PCAF expression (CBP, PCAF): no effect
- EC50 ([2]; Homo sapiens, A549, read-out: EC50, induction of SLPI): 9 nM
- concentration of maximum SLPI induction ([2]; dexamethasone alone): 1 µM
- IC50, p65-associated IL-1β-induced histone acetylation [6]: 0.4 nM
- IC50, p65-associated histone acetylation in the presence of TSA ([6]; TSA 100 ng/ml): 90 nM
- concentration giving maximum induction of histone acetylation ([3]; between 4-8 hr): ≥ 10^−8 M
- basal histone acetylation ([3]; dexamethasone 10^−10 M alone, no effect): 23.7±4.1 dpm/μg protein
- IL-1β plus dexamethasone-stimulated histone acetylation ([3]; dexamethasone 10^−10 M, no TSA): 37±5 dpm/μg protein
- dexamethasone-induced histone acetylation ([3]; without TSA): 71±9 dpm/μg protein
- acetylated histone H4 K5 [7]: 53±9 % positive nuclei
- acetylated histone H4 K16 [7]: 36±16 % positive nuclei
- total cell HDAC activity after IL-1β plus H2O2 ([4]; 4 hrs, theophylline pre-treatment 10^−5 M, 10 min): no effect

Compound: COc1ccc(C2CNC(=O)C2)cc1OC1CCCC1 (centres unmarked) [rolipram]
- HAT activity [8]: no effect
- HDAC activity [9]: no effect
- direct effect on HDAC activity (HDAC activity): no direct effect
- direct effect on HAT activity (HAT activity): no direct effect

Compound: IL-1β: interleukin used to stimulate A549 cells (1 ng/ml)
- SLPI production ([2]; IL-1β 1 ng/ml, versus 1.2±0.3 control): 6.0 ± 0.5 ng/mL
- increase of p65-immunoprecipitated histone acetylation ([6]; IL-1β stimulation): 9-10 fold
- IL-1β-stimulated GM-CSF release ([1]; A549 cells): 714 ± 94 pg/mL
- increase in GM-CSF release ([1]; IL-1β 1 ng/ml): 30 fold
- GM-CSF within the culture supernatant ([1]; IL-1β 1 ng/ml, 6 hr, untreated cells 30±10): 157 ± 6 ng/mL
- histone acetylation, IL-1β alone ([3]; IL-1β 1 ng/ml, whole cell incorporation): 137±15 dpm/μg protein and 71±9 dpm/μg protein
- histone acetylation 30 min after IL-1β-stimulation ([3]; versus 18±4): 41±6 dpm/μg protein
- increase in histone acetylation ([3]; whole cell): 4-5 fold and 4 fold
- acetylated histone H4 K8 [7]: 42±15 % positive nuclei
- acetylated histone H4 K12 [7]: 37±4 % positive nuclei

Compound: lipopolysaccharide [LPS]
- reduction of total cell HDAC activity ([4]; LPS, 6 hrs): 30%
